The results in this text go back to patent US11090304B2 (Amgen Inc., priority 2018, dated 2021).

The target of test [1] is GDP-bound KRAS protein (aa 1-169), containing both G12C and C118A amino acid substitutions (Homo sapiens, UniProt P01116, C118A/G12C). The test can be described thus: Coupled nucleotide exchange assay (SOS-mediated, AlphaScreen). It counts as biochemical. Conditions: 5 min compound pre-incubation; for IC50: read-out: Coupled exchange IC50 (5 min).
For test [2], the system named is Phosphorylation of ERK1/2 in MIA PaCa-2 cells. The test can be described thus: Phospho-ERK1/2 MSD assay in MIA PaCa-2 cells. It counts as cell-based. How it is done: For compounds in Table 89, the following assay conditions were employed:
Phospho-ERK1/2 MSD Assay:
Sixteen hours prior to compound treatment, MIA PaCa-2 or A549 cells were seeded in 96-well cell culture plates at a density of 25,000 cells/well and incubated at 37° C., 5% CO2. A compound dose-response titration was diluted in growth media, added to appropriate wells of a cell culture plate, and then incubated at 37° C., 5% CO2 for 2 or 4 hours (see Table 15). Following compound treatment, cells were stimulated with 10 ng/mL EGF (Roche 11376454001) for 10 min, washed with ice-cold Dulbecco's phosphate-buffered saline, no Ca^2+ or Mg^2+ (ThermoFisher Scientific 14190144), and then lysed in RIPA buffer (50 mM Tris-HCl pH 7.5, 1% Igepal, 0.5% sodium deoxycholate, 150 mM NaCl, and 0.5% sodium dodecyl sulfate) containing protease inhibitors (Roche 4693132001) and phosphatase inhibitors (Roche 4906837001). Phosphorylation of ERK1/2 in compound-treated lysates was assayed using Phospho-ERK1/2 Whole Cell Lysate kits (Meso Scale Discovery K151DWD) according to the manufacturer's protocol. Assay plates were read on a Meso Scale Discovery Sector Imager 6000, and data were analyzed using a 4-parameter logistic model to calculate IC50 values.

Setting [3] is: read-out: p-ERK IC50 (2 h; MIA PaCa-2), 2 h compound treatment.
[4] abbreviates: Homo sapiens, MIA PaCa-2, 2 h, read-out: p-ERK IC50 (2 h; MIA PaCa-2), 2 h compound treatment.

Like-named read-outs stand apart in the source and are kept apart here.

As for “6-Chloro-7-(2-fluoro-6-hydroxyphenyl)-4-((2S)-2-methyl-4-(2-propenoyl)-1-piperazinyl)-1-(2-(methylsulfonyl)phenyl)pyrido[2,3-d]pyrimidin-2(1H)-one [Example 54-1]”, the IC50 in test [1] is 225 nM; in test [2] (setting [3]), 109 nM. For `C=CC(=O)N1CCN(c2nc(=O)n(-c3c(C)cccc3C(C)C)c3nc(-c4ccccc4F)c(Cl)cc23)[C@@H](C)C1` (atropisomer, axis not shown; (M)) [Example 64-1, (M)-6-Chloro-7-(2-fluorophenyl)-1-(2-methyl-6-(2-propanyl)phenyl)-4-((2S)-2-methyl-4-(2-propenoyl)-1-piperazinyl)pyrido[2,3-d]pyrimidin-2(1H)-one], the IC50 in test [1] stood at 44 nM; in test [2] (setting [3]), 76 nM. Turning to `C=CC(=O)N1CCN(c2nc(=O)n(-c3c(C)ccnc3C(C)C)c3nc(-c4nc(N)ccc4Cl)c(F)cc23)C(C)C1` (atropisomer, axis not shown; (M)) [Example 65-1, (M)-7-(6-Amino-3-chloro-2-pyridinyl)-6-fluoro-1-(4-methyl-2-(2-propanyl)-3-pyridinyl)-4-((2S)-2-methyl-4-(2-propenoyl)-1-piperazinyl)pyrido[2,3-d]pyrimidin-2(1H)-one], in test [1], the “Coupled exchange IC50 (5 min)” value is 0.606 | nda μM. For the same molecule, in test [2] (setting [4]), the IC50 turned out to be 1520 nM. Take `C=CC(=O)N1CCN(c2nc(=O)n(-c3c(C)ccnc3C(C)C)c3nc(-c4c(O)cc(F)cc4F)c(F)cc23)[C@@H](C)C1` (atropisomer, axis not shown; (M)) [Example 65-3, (M)-7-(2,4-difluoro-6-hydroxyphenyl)-6-fluoro-1-(4-methyl-2-(2-propanyl)-3-pyridinyl)-4-((2S)-2-methyl-4-(2-propenoyl)-1-piperazinyl)pyrido[2,3-d]pyrimidin-2(1H)-one]: in test [1], the “Coupled exchange IC50 (5 min)” value is 0.096 | nda μM. The IC50 in test [2] (setting [4]) amounted to 100 nM. As to `C=CC(=O)N1CCN(c2nc(=O)n(-c3c(C)ccnc3C(C)C)c3nc(-c4cc(F)c(F)cc4O)c(F)cc23)[C@@H](C)C1` (atropisomer, axis not shown; (M)) [Example 72-2, (M)-7-(4,5-difluoro-2-hydroxyphenyl)-6-fluoro-1-(4-methyl-2-(2-propanyl)-3-pyridinyl)-4-((2S)-2-methyl-4-(2-propenoyl)-1-piperazinyl)pyrido[2,3-d]pyrimidin-2(1H)-one], the “Coupled exchange IC50 (5 min)” value in test [1] was 0.534 | nda μM. In addition, the 50% inhibitory concentration (IC50) in test [2] (setting [4]) is 595 nM. Taken in the same sequence, the figures for `C=CC(=O)N1CCN(c2nc(=O)n(-c3c(C)ccnc3C(C)C)c3nc(-c4c(C)cccc4O)c(F)cc23)[C@@H](C)C1` (atropisomer, axis not shown; (M)) [Example 72-4, (M)-6-fluoro-7-(2-hydroxy-6-methylphenyl)-1-(4-methyl-2-(2-propanyl)-3-pyridinyl)-4-((2S)-2-methyl-4-(2-propenoyl)-1-piperazinyl)pyrido[2,3-d]pyrimidin-2(1H)-one] were 0.08 | nda μM and 115 nM.

Regarding `C=CC(=O)N1CCN(c2nc(=O)n(-c3c(C)ccnc3C(C)C)c3nc(-c4cc(OC)c(F)cc4F)c(F)cc23)[C@@H](C)C1` (atropisomer, axis not shown; (M)) [Example 72-6, (M)-7-(2,4-difluoro-5-methoxyphenyl)-6-fluoro-1-(4-methyl)-2-(2-propanyl)-3-pyridinyl)-4-((2S)-(2-methyl-4-(2-propenoyl)-1-piperazinyl)pyrido[2,3-d]pyrimidin-2(1H)-one], the “Coupled exchange IC50 (5 min)” value in test [1] is 0.315 | nda μM. For the same molecule, the IC50 in test [2] (setting [4]) was 564 nM. Regarding `C=CC(=O)N1CCN(c2nc(=O)n(-c3c(C)ccnc3C(C)C)c3nc(-c4cc(O)c(F)cc4F)c(F)cc23)[C@@H](C)C1` (atropisomer, axis not shown; (M)) [Example 72-7, (M)-7-(2,4-difluoro-5-hydroxyphenyl)-6-fluoro-1-(4-methyl-2-(2-propanyl)-3-pyridinyl)-4-((2S)-2-methyl-4-(2-propenoyl)-1-piperazinyl)pyrido[2,3-d]pyrimidin-2(1H)-one], the “Coupled exchange IC50 (5 min)” value in test [1] is 0.262 | nda μM. Moreover, the IC50 in test [2] (setting [4]) worked out at 2240 nM. As for `C=CC(=O)N1CCN(c2nc(=O)n(-c3c(C)ccnc3C(C)C)c3nc(-c4c(O)ccc(F)c4F)c(F)cc23)[C@@H](C)C1` (atropisomer, axis not shown; (M)) [Example 72-8, (M)-7-(2,3-difluoro-6-hydroxyphenyl)-6-fluoro-1-(4-methyl-2-(2-propanyl)-3-pyridinyl)-4-((2S)-2-methyl-4-(2-propenoyl)-1-piperazinyl)pyrido[2,3-d]pyrimidin-2(1H)-one], in test [1], the “Coupled exchange IC50 (5 min)” value is given as 0.042 | nda μM. Further, in test [2] (setting [4]), the IC50 amounted to 91 nM.

Turning to `C=CC(=O)N1CCN(c2nc(=O)n(-c3c(C)ccnc3C(C)C)c3nc(-c4c(F)ccc(F)c4O)c(F)cc23)[C@@H](C)C1` (atropisomer, axis not shown; (M)) [Example 72-9, (M)-7-(3,6-difluoro-2-hydroxyphenyl)-6-fluoro-1-(4-methyl-2-(2-propanyl)-3-pyridinyl)-4-((2S)-2-methyl-4-(2-propenoyl)-1-piperazinyl)pyrido[2,3-d]pyrimidin-2(1H)-one], the “Coupled exchange IC50 (5 min)” value in test [1] was 0.191 | nda μM. In addition, the IC50 in test [2] (setting [4]) was 554 nM. As to `C=CC(=O)N1CCN(c2nc(=O)n(-c3c(C)ccnc3C(C)C)c3nc(-c4c(F)ccc(C)c4O)c(F)cc23)[C@@H](C)C1` (atropisomer, axis not shown; (M)) [Example 72-10, (M)-6-fluoro-7-(6-fluoro-2-hydroxy-3-methylphenyl)-1-(4-methyl-2-(2-propanyl)-3-pyridinyl)-4-((2S)-2-methyl-4-(2-propenoyl)-1-piperazinyl)pyrido[2,3-d]pyrimidin-2(1H)-one], the “Coupled exchange IC50 (5 min)” value in test [1] is recorded as 0.158 | nda μM. Also, the IC50 in test [2] (setting [4]) was determined as 150 nM. With `C=CC(=O)N1CCN(c2nc(=O)n(-c3c(C)ccnc3C(C)C)c3nc(-c4c(N)cccc4F)c(F)cc23)[C@@H](C)C1` (atropisomer, axis not shown; (M)) [Example 72-11, (M)-7-(2-amino-6-fluorophenyl)-6-fluoro-1-(4-methyl-2-(2-propanyl)-3-pyridinyl)-4-((2S)-2-methyl-4-(2-propenoyl)-1-piperazinyl)pyrido[2,3-d]pyrimidin-2(1H)-one], the “Coupled exchange IC50 (5 min)” value in test [1] is 0.039 | nda μM. In addition, in test [2] (setting [4]), the IC50 was determined as 44 nM. In the case of `C=CC(=O)N1C[C@H](C)N(c2nc(=O)n(-c3c(C)ccnc3C(C)C)c3nc(-c4c(N)cccc4F)c(F)cc23)[C@@H](C)C1` (atropisomer, axis not shown; (M)) [Example 72-13, (M)-7-(2-amino-6-fluorophenyl)-4-((2S,6S)-2,6-dimethyl-4-(2-propenoyl)-1-piperazinyl)-6-fluoro-1-(4-methyl-2-(2-propanyl)-3-pyridinyl)pyrido[2,3-d]pyrimidin-2(1H)-one], the “Coupled exchange IC50 (5 min)” value in test [1] is given as 0.021 | nda μM. For the same molecule, the IC50 in test [2] (setting [4]) was found to be 12 nM.

Regarding `C=CC(=O)N1CCN(c2nc(=O)n(CC3(C(F)(F)F)CC3)c3nc(-c4ccccc4F)c(Cl)cc23)CC1` [Example 60-4, 6-chloro-7-(2-fluorophenyl)-4-(4-(2-propenoyl)-1-piperazinyl)-1-((1-(trifluoromethyl)cyclopropyl)methyl)pyrido[2,3-d]pyrimidin-2(1H)-one], the IC50 in test [2] (Homo sapiens, MIA PaCa-2, 4 h, read-out: p-ERK IC50 (4 h; MIA PaCa-2), 4 h compound treatment) came out at 2250 nM. For `C=CC(=O)N1CCN(c2nc(=O)n(-c3ccccc3C(C)C)c3nc(N4CCCC4)c(Cl)cc23)[C@@H](C)C1` [Example 69-3, 6-chloro-4-((2S)-2-methyl-4-(2-propenoyl)-1-piperazinyl)-1-(2-(2-propanyl)phenyl)-7-(1-pyrrolidinyl)pyrido[2,3-d]pyrimidin-2(1H)-one], the IC50 in test [2] (setting [4]) was found to be 1700 nM.

As to `C=CC(=O)N1CCN(c2nc(C)c(-c3ccccc3C3CC3)c3nc(-c4ccccc4F)c(Cl)cc23)CC1` [Example 85-3, 1-(4-(3-chloro-8-(2-cyclopropylphenyl)-2-(2-fluorophenyl)-7-methyl-1,6-naphthyridin-5-yl)-1-piperazinyl)-2-propen-1-one], in test [2] (setting [4]), the IC50 was determined as 10000 nM. Regarding `C=CC(=O)N1CCN(c2nc(C)c(-c3ccccc3C(C)C)c3nc(-c4ccccc4F)c(Cl)cc23)[C@@H](C)C1` [Example 85-4, 1-((3S)-4-(3-chloro-2-(2-fluorophenyl)-7-methyl-8-(2-(2-propanyl)phenyl)-1,6-naphthyridin-5-yl)-3-methyl-1-piperazinyl)-2-propen-1-one], the IC50 in test [2] (setting [4]) came to 10000 nM. In the case of `C=CC(=O)N1CCN(c2nc(CO)cc3nc(-c4ccccc4F)c(Cl)cc23)[C@@H](C)C1` [Example 150, 1-((3S)-4-(3-Chloro-2-(2-fluorophenyl)-7-(hydroxymethyl)-1,6-naphthyridin-5-yl)-3-methyl-1-piperazinyl)-2-propen-1-one], the IC50 in test [2] (setting [4]) is 3330 nM.
